SMILES | melting point
O=C(Oc1ccc(NS(=O)(=O)C(F)(F)F)cc1)[C@H](CC(=O)N1CC2CCC1CC2)Cc1ccccc1 | 60 to 62 °C
CS(=O)(=O)N[C@H](CC(=O)N1CC2CCC1CC2)Cc1ccccc1 | 127 to 129 °C
CN(c1c(O)c(=O)c1=O)[C@H](CC(=O)N1CC2CCC1CC2)Cc1ccccc1 [Compound 52, N-(3-hydroxy-3-cyclobutene-1,2-dione-4-yl)-N-methyl-(1S)-[2-(isoquinuclidin-2-yl)-2-oxo-ethyl]-phenyl ethylamine] | 153 to 155 °C
O=C(Nc1nccs1)[C@H](CC(=O)N1CC2CCC1CC2)Cc1ccccc1 | 69 to 72 °C
O=C(C[C@H](Cc1ccccc1)Nc1c(O)c(=O)c1=O)N1CC2CCC1CC2 | 156 to 158 °C
O=C(Cc1ccc(NC(=O)C(=O)O)cc1)N[C@@H](CC(=O)N1CC2CCC1CC2)Cc1ccccc1 | 79 to 80 °C
O=C(O)C(O)[C@H](CC(=O)N1CC2CCC1CC2)Cc1ccccc1 (stereo partly drawn) | 60 to 61 °C
O=C(Oc1ccccc1)[C@H](CC(=O)N1CC2CCC1CC2)Cc1ccccc1 [Compound 15, (2S)-2-benzyl-4-(isoquinuclidin-2-yl)-4-oxo-butanoic acid phenylester] | 112 to 113 °C
O=C(O)CC(=O)N[C@H](CC(=O)N1CC2CCC1CC2)Cc1ccccc1 | 149 to 151 °C
O=C(Nc1cc(F)c(O)c(F)c1)[C@H](CC(=O)N1CC2CCC1CC2)Cc1ccccc1 | 118 to 120 °C
O=C(O)C(C[C@H](CC(=O)N1CC2CCC1CC2)Cc1ccccc1)C(=O)O | 78 to 80 °C
CCOc1cc(CC(=O)N[C@H](CC(=O)N2CC3CCC2CC3)Cc2ccccc2)ccc1C(=O)O | 100 to 103 °C
O=C(O)[C@@H](CCOc1ccccc1)CC(=O)N1CC2CCC1CC2 | 117 to 119 °C
O=C(C[C@@H](C=NOS(=O)(=O)O)Cc1ccccc1)N1CC2CCC1CC2 | 148 to 151 °C
O=C(Cc1ccc(NS(=O)(=O)C(F)(F)F)cc1)N[C@H](CC(=O)N1CC2CCC1CC2)Cc1ccccc1 | 78 to 80 °C
O=C(Oc1ccc(O)cc1)[C@H](CC(=O)N1CC2CCC1CC2)Cc1ccccc1 [Compound 18, p-hydroxy phenyl (2S)-2-benzyl-4-(isoquinuclidine-2-yl)-4-oxo-butyrate] | 61 to 64 °C
O=C(O)[C@H](CC(=O)N1CC2CCC1CC2)Oc1ccccc1 | 140 to 142 °C
O=C(Nc1ccc(NS(=O)(=O)C(F)(F)F)cc1)[C@H](CC(=O)N1CC2CCC1CC2)Cc1ccccc1 | 136 to 138 °C
CS(=O)(=O)N[C@@H](CC(=O)N1CC2CCC1CC2)Cc1ccccc1 | 129 to 130 °C
O=C(C[C@@H](Cc1ccccc1)NS(=O)(=O)C(F)(F)F)N1CC2CCC1CC2 | 128 to 130 °C
O=C([O-])[C@H](CC(=O)N1CC2CCC1CC2)Cc1ccccc1.[Na+] [Compound 11] | > 250 °C
O=C(O)CC[C@H](CC(=O)N1CC2CCC1CC2)Cc1ccccc1 | 79 to 81 °C

Continued, values first:

melting point | SMILES
200 to 201 °C | O=C(O)C(=O)Nc1ccc(C(=O)N[C@@H](CC(=O)N2CC3CCC2CC3)Cc2ccccc2)cc1
92 to 95 °C | O=C(OC1CCCCC1)[C@H](CC(=O)N1CC2CCC1CC2)Cc1ccccc1 [Compound 14]
84 to 85 °C | O=C(O)C(C[C@H](CC(=O)N1CC2CCC1CC2)CC1CCCCC1)C(=O)O
155 to 158 °C | O=C(C[C@H](Cc1ccccc1)NS(=O)(=O)C(F)(F)F)N1CC2CCC1CC2
115 to 117 °C | O=C(O)[C@H](CCOc1ccccc1)CC(=O)N1CC2CCC1CC2
93 to 95 °C | O=C(O)[C@H](CC(=O)N1CC2CCC1CC2)Cc1ccccc1 [Compound 1, (2S)-2-benzyl-4-(isoquinuclidin-2-yl)-4-oxo-butanoic acid]
60 to 65 °C | O=C(Nc1nccs1)[C@H](CC(=O)N1CC2CCC1CC2)Oc1ccccc1
52 to 53 °C | O=C(O)/C=C/[C@H](CC(=O)N1CC2CCC1CC2)Cc1ccccc1
171 to 174 °C | O=C(O)[C@H](CCN1CC2CCC1CC2)Cc1ccccc1 [Compound 47]
156 to 159 °C | O=C(O)C(=O)N[C@H](CC(=O)N1CC2CCC1CC2)Cc1ccccc1
171 to 172 °C | O=C(Nc1ccncc1)[C@H](CC(=O)N1CC2CCC1CC2)Cc1ccccc1

From patent publication US6903111B2 (priority 2001, dated 2005)
